Assay results reported in US9592214B2, “Compounds for the treatment of autism in a baby child” (INSERM (INSTITUT NATIONAL DE LA SANTE ET DE LA RECHERCHE …, priority 2010, dated 2017).

Tests used:
[1] = system: hippocampal CA3 pyramidal cells; test: Acute application of bumetanide to hippocampal slices: DFGABA from cell-attached single GABAA channel recordings; assay type: cell-based, rat; details: acute bumetanide 10 μM
Experimental: Time-mated female Wistar rats at gestational day E7-8 were housed under standard laboratory conditions. […] The offspring were used for experiments on embryonic day 20 (E20) and postnatal (P) days 0, 2, 4, 7, 15 and 30 (after being weaned at P23). Experiments were carried out on offspring of either sex.
Hippocampal slices (300-500 nm thick) were prepared using a Microm tissue slicer (International GmbH, Germany) as described previously (Tyzio et al. 2006 Science 314, 1788; Tyzio et al, 2008, Eur J. Neurosci. 27(10):2515-28). Slices were kept in oxygenated (95% O2/5% CO2) artificial cerebrospinal fluid (ACSF) of the following composition (in mM): NaCl 126, KCl 3.5, CaCl2 2.0, MgCl2 1.3, NaHCO3 25, NaH2PO4 1.2 and glucose 11 (pH 7.4) at room temperature (20-22° C.) at least 1 hour before use.
Bumetanide (10 μM), Oxytocin (1 μM) and Isoguvacine (2 μM) were directly added to the perfusion solutions. […] All drugs used were purchased from Sigma.

[2] = system: hippocampal CA3 pyramidal cells; test: DFGABA in hippocampal CA3 pyramidal cells of offspring after in utero VPA / maternal bumetanide pretreatment; assay type: in vivo, rat; details: for DFGABA (mV), mean ± S.E.: P15 VPA rats, maternal bumetanide pretreatment (2-2.5 mg/kg in drinking water, 1 day before delivery)
Experimental: (§1) Time-mated female Wistar rats at gestational day E7-8 were housed under standard laboratory conditions. The in utero valproic acid (VPA) rodent model of autism spectrum disorders has been previously described in detail. Briefly, the sodium salt of VPA (Sigma-Aldrich) was dissolved in physiological saline solution to a concentration of 300 mg/ml. Pregnant rats received a single intra-peritoneal dose of 600 mg/kg on gestational day 12 (E12). The control dams received a single similar volume injection of saline at the same gestational time-point. Dams were housed individually and allowed to raise their own litters. The offspring were used for experiments on embryonic day 20 (E20) and postnatal (P) days 0, 2, 4, 7, 15 and 30 (after being weaned at P23). Experiments were carried out on offspring of either sex.
(§2) Experiments were performed on fetuses and neonatal rat pups. We removed E20 rats from deeply anesthetized dams [subcutaneous injection of a mixture of xylazine (Rompun 2%; used at 0.05%) and ketamine (Imalgene 1000 used at 50 g/l)]. Hippocampal slices ([…] thick) were prepared using a Microm tissue slicer (International GmbH, Germany) as described previously (Tyzio et al. 2006 Science 314, 1788; Tyzio et al, 2008, Eur J. Neurosci. 27(10):2515-28). Slices were kept in oxygenated (95% O2/5% CO2) artificial cerebrospinal fluid (ACSF) of the following composition (in mM): NaCl 126, KCl 3.5, CaCl2 2.0, MgCl2 1.3, NaHCO3 25, NaH2PO4 1.2 and glucose 11 (pH 7.4) at room temperature (20-22° C.) at least 1 hour before use.
For recordings, slices were placed into a conventional fully submerged chamber superfused with ACSF at a rate of 2-3 ml/min at room temperature. Patch clamp recordings from visually identified CA3 pyramidal cells in cell-attached configuration were performed using EPC-10 amplifier (HEKA Elektronik Dr. Schulze GmbH, Lambrecht/Pfalz, Germany). Patch pipette solution for recordings of single GABAA channels contained (in mM): NaCl 120, KCl 5, TEA-Cl 20, 4-aminopyridine 5, CaCl2 0.1, MgCl2 10, glucose 10, Hepes-NaOH 10 buffered to pH 7.2-7.3 and GABA 2 μM. Analysis of currents through single channels and current-voltage relationships were performed using Clampfit 9.2 (Axon Instruments, Union City, Calif.). Recordings were digitized (10 kHz) online with Digidata-1200 interface card (Axon Instruments, Union City, Calif.) and analyzed offline with Axon package, MiniAnalysis (S (Synaptsoft, Decatur, Ga.), and Origin (Microcal Software, Northampton, Mass.).
(§3) Bumetanide (10 μM), Oxytocin (1 μM) and Isoguvacine (2 μM) were directly added to the perfusion solutions. Bumetanide pretreatment (2-2.5 mg/kg) was given to the dams in drinking water. All drugs used were purchased from Sigma. SSR126768A (Sanofi-Synthelabo) pretreatment (1 mg/kg) was given to the dams in drinking water.
If the polarity of GABA actions at delivery produces long terms effects in offsprings, then restoring low [Cl^−]i and inhibitory GABA at delivery might restore physiological parameters in juvenile rodents. To test this hypothesis, pregnant females were treated orally 1 day before delivery with bumetanide (2-2.5 mg/kg in drinking water) and juvenile offspring neurons recorded at P15. […] In VPA rats, GABAergic inputs are excitatory and contribute to hyperexcitability of the network. Bumetanide decreases [Cl^−]i and consequently reduces contribution of excitatory GABAergic inputs in the overall network activity.

hippocampal slices = test: Effects of isoguvacine on spike frequency, extracellular field potential recordings in hippocampal slices; assay type: cell-based, rat; details: for Effects of isoguvacine on frequency of spikes in extracellular recordings (% of control), mean ± S.E.: VPA rats with maternal bumetanide pretreatment, P15
Experimental: as §2
Extracellular field potentials and multi-unit activity (MUA) recordings Recording were made in the hippocampal slices using tungsten wire electrodes (diameter: 50 μm, California Fine Wire, Grover Beach, Calif.) and a low-noise multichannel DAM-8A amplifiers (WPI, GB; […]; gain: ×1000). The signals were digitized using an analogue-to-digital converter (Digidata 1440A, Axon Instruments, USA). pCLAMP 10.1, Clampfit 10.1 (Axon Instruments, USA), MiniAnalysis 6.03 (Synaptosoft, Decatur, Calif.) and Origin 7.5 (Microcal Software, USA) programs were used for the acquisition and analysis of the synaptic activities. Sampling interval per signal was 100 microseconds (10 kHz).
as §3

[3] = system: Valproate rat model of autism; test: In vivo EEG recordings in the CA3 area of hippocampus of head-restrained rats; details: for Integral power spectra of EEG recordings, mean ± S.E.M.: VPA rats with maternal BUM pretreatment, P13-15
Experimental: as §1
Head-fixed rat pups of age P13-P15 were prepared for extracellular recording under isoflurane anesthesia. The skin and periosteum were removed from the skull, which was then covered by glue and dental cement except for a 4-9 mm^2 window above the somatosensory cortex from one or two hemispheres for the silicon probe penetration (4.0-4.2 mm lateral to midline and 2.2-2.5 mm caudal to bregma) and for the reference electrode (1.0-1.5 mm lateral to midline and 6.0-6.5 mm caudal to bregma). The rat was positioned in the stereotaxic apparatus. A 1 mm-diameter burr hole was drilled in the skull; the dura was cut and removed. Recordings were made 1 h after recovery from anesthesia. Pups were kept restrained for <3 h and were closely monitored for signs of stress and to ensure that they spent a normal proportion of their time sleeping. The outside temperature was maintained between 35 and 36° C. The animals were kept in low-light conditions throughout all experiments. 16-site linear silicone probe (NeuroNexus Technologies) coupled to a direct-current amplifier (Molecular Devices) and dunked previously in fluorescent dye (DiI, Invitrogen) was slowly penetrated via the hole at […] depth under the angle 30° in the coronal plane. EEGs were recorded during 2 hours, using a 16-channel amplifier (A-M System, Inc.) and digitized at 5 kHz using Axoscope software (Molecular Deviced). Recordings were amplified and high-pass filtered at 0.3 Hz in Axoscope. Silicone probe location was verified postmortem via dye localization. To quantify the frequency band integral power the traces were band-pass filtered at frequency bands […]) θ-(4-7 Hz), α-(7-12 Hz), β-(12-25 Hz), Low γ-(25-60 Hz), High γ-(60-120 Hz) and Fast oscillations-(120-500 Hz)). Fast Fourier Transform (FFT) was applied with Clampfit (Molecular Devices). Integrals of FFT power spectra were taken and averaged with OriginPro (OriginLab Corporation).
as §3

[4] = P15 VPA offspring, maternal bumetanide pretreatment, result in words

## CCCCNc1cc(C(=O)O)cc(S(N)(=O)=O)c1Oc1ccccc1 [bumetanide]
[1]; P0 VPA neurons, result in words
  [Cl−]i: significantly decreased
[1]; P0 VPA rats
  DFGABA mV), mean±: −2.4 ± 1.2 (n = 21) mV
[1]; P0 control rats
  DFGABA mV), mean±: −5.3 ± 0.7 (n = 17) mV
[2]; [4]
  DFGABA values in offsprings: restored control DFGABA values
[2]
  DFGABA (mV), mean ± S.E.: 0.4±1.1 mV
[2]; listed as BUM
  DFGABA (mV), mean ± S.E.: 0.4 ± 1.1 (n = 58) mV
Hippocampal slices; [4]
  excitatory actions of the GABAAR agonist isoguvacine: suppressed the excitatory actions
Hippocampal slices
  Effects of isoguvacine on frequency of spikes in extracellular recordings (% of control), mean ± S.E.: 82.8±10.7 % of control
Hippocampal slices; listed as BUM
  Effects of isoguvacine on frequency of spikes in extracellular recordings (% of control), mean ± S.E.: 82.8 ± 10.7 (n = 9), P < 0.05 % of control
[3]; P13-P15 VPA offspring, maternal bumetanide pretreatment, result in words
  EEG oscillatory hyperactivity and power of network oscillations: abolished hyperactivity and restored physiological values
[3]; frequency band 0.5-4 Hz
  Integral power spectra of EEG recordings, mean ± S.E.M.: 88.53 ± 27.57
[3]; frequency band 4-7 Hz
  Integral power spectra of EEG recordings, mean ± S.E.M.: 15.40 ± 4.25
[3]; frequency band 7-12 Hz
  Integral power spectra of EEG recordings, mean ± S.E.M.: 7.09 ± 1.56
[3]; frequency band 12-25 Hz
  Integral power spectra of EEG recordings, mean ± S.E.M.: 6.35 ± 1.52
[3]; frequency band 25-60 Hz
  Integral power spectra of EEG recordings, mean ± S.E.M.: 0.97 ± 0.20
[3]; frequency band 60-120 Hz
  Integral power spectra of EEG recordings, mean ± S.E.M.: 0.32 ± 0.06
[3]; frequency band 120-500 Hz
  Integral power spectra of EEG recordings, mean ± S.E.M.: 1.18 ± 0.19
